The results in this text go back to patent publication US20080058890A1, “HOMOTOPIC CO[…] THE BRAIN STEM […] A SUBJECT” (The Penn State Research Foundation, priority 2006, published 2008).

For this assay, the system named is NMDA receptor. The conditions noted are these: NMB rat; CPP 2.5 mg total i.v. (1.25 mg/ml x 0.2 ml/min x 10 min) infused before tetanus; ERs hours 7-16 post-tetanus vs control.

For the molecule `O=C(O)C1CN(CCCP(=O)(O)O)CCN1` (stereo not shown) [CPP, 3-(2-Carboxypiperazin-4-yl)-propyl-1-phosphoric acid], the “effect of a A+C-fiber tetanus on the A-fiber ERs (NTS evoked responses)” value is reported as “blocked the effect of a A+C-fiber tetanus on the A-fiber ERs”.
